PubChem BioAssay (NCI)
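A five-concentration, 48-hour dose response in 96-well plates underlies each endpoint, interpolated linearly between surrounding concentrations. The concentration for 50% growth inhibition is given as GI50. At the TGI there is no net growth.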

What follows are compounds tested on HS 578T breast (assay: inhibition of tumour cell growth, NCI panel, 48 h).

Compound	GI50	TGI
CNCCOC(=O)/C=C1\CC[C@H]2[C@@H]([C@@H](O)C(=O)[C@@H]3[C@]2(C)CC[C@H](O)[C@]3(C)C(=O)OC)[C@H]1C	0.281 µM	2.06 µM
Cc1nnc(Nc2ccc(NC(=O)Nc3ccc(Cl)cc3)cc2)c2ccccc12	2.52 µM	6.4 µM
CC(=O)ON1CCCC(P(=O)(OCCSC(=O)C(C)(C)C)OCCSC(=O)C(C)(C)C)C1=O (stereo not given)	1.53 µM	8.94 µM
NS(=O)(=O)c1ccc(N=Nc2c(O)c(C(=O)O)cc3ccccc23)cc1	–	> 100 µM
Cc1c(N(C)C)ccc2c(=O)c3cccc(CC(=O)O)c3oc12	–	> 100 µM
CC(NCCC(c1ccccc1)c1ccccc1)c1ccccc1 (stereo not given)	4.04 µM	23.9 µM
O=C(Nc1ccc(Br)cc1F)c1cc(Cl)ccc1O	0.327 µM	2.81 µM
NC(N)=N/N=C/c1c(Cl)cccc1Cl	18 µM	78 µM
S=c1[nH]c(=S)c2cc3ccccc3nc2[nH]1	71.3 µM	> 100 µM
CCC[CH2][Sn]([CH2]CCC)([O]C(=O)c1ccc(OC)c(OC)c1OC)[O][Sn]([CH2]CCC)([CH2]CCC)[O]C(=O)c1ccc(OC)c(OC)c1OC	0.282 µM	1.81 µM

Each compound was assayed on OVCAR-3 ovarian (assay: inhibition of tumour cell growth, NCI panel, 48 h).

Compound	GI50	TGI
CNCCOC(=O)/C=C1\CC[C@H]2[C@@H]([C@@H](O)C(=O)[C@@H]3[C@]2(C)CC[C@H](O)[C@]3(C)C(=O)OC)[C@H]1C	0.228 µM	0.49 µM
Cc1nnc(Nc2ccc(NC(=O)Nc3ccc(Cl)cc3)cc2)c2ccccc12	1.87 µM	3.99 µM
CC(=O)ON1CCCC(P(=O)(OCCSC(=O)C(C)(C)C)OCCSC(=O)C(C)(C)C)C1=O (stereo not given)	1.19 µM	20.5 µM
NS(=O)(=O)c1ccc(N=Nc2c(O)c(C(=O)O)cc3ccccc23)cc1	–	> 100 µM
Cc1c(N(C)C)ccc2c(=O)c3cccc(CC(=O)O)c3oc12	–	> 100 µM
CC(NCCC(c1ccccc1)c1ccccc1)c1ccccc1 (stereo not given)	3.21 µM	10.7 µM
O=C(Nc1ccc(Br)cc1F)c1cc(Cl)ccc1O	0.476 µM	> 26.6 µM
NC(N)=N/N=C/c1c(Cl)cccc1Cl	28.1 µM	> 100 µM
S=c1[nH]c(=S)c2cc3ccccc3nc2[nH]1	12.9 µM	95.8 µM
CCC[CH2][Sn]([CH2]CCC)([O]C(=O)c1ccc(OC)c(OC)c1OC)[O][Sn]([CH2]CCC)([CH2]CCC)[O]C(=O)c1ccc(OC)c(OC)c1OC	0.406 µM	1.18 µM

What follows are compounds tested on A498 renal (assay: inhibition of tumour cell growth, NCI panel, 48 h).

Compound	GI50	TGI
CNCCOC(=O)/C=C1\CC[C@H]2[C@@H]([C@@H](O)C(=O)[C@@H]3[C@]2(C)CC[C@H](O)[C@]3(C)C(=O)OC)[C@H]1C	0.262 µM	2.53 µM
Cc1nnc(Nc2ccc(NC(=O)Nc3ccc(Cl)cc3)cc2)c2ccccc12	3.21 µM	10.5 µM
CC(=O)ON1CCCC(P(=O)(OCCSC(=O)C(C)(C)C)OCCSC(=O)C(C)(C)C)C1=O (stereo not given)	0.304 µM	3.49 µM
NS(=O)(=O)c1ccc(N=Nc2c(O)c(C(=O)O)cc3ccccc23)cc1	–	> 100 µM
Cc1c(N(C)C)ccc2c(=O)c3cccc(CC(=O)O)c3oc12	–	> 100 µM
CC(NCCC(c1ccccc1)c1ccccc1)c1ccccc1 (stereo not given)	1.45 µM	3.93 µM
O=C(Nc1ccc(Br)cc1F)c1cc(Cl)ccc1O	0.16 µM	0.604 µM
NC(N)=N/N=C/c1c(Cl)cccc1Cl	3.98 µM	36.9 µM
S=c1[nH]c(=S)c2cc3ccccc3nc2[nH]1	> 100 µM	> 100 µM
CCC[CH2][Sn]([CH2]CCC)([O]C(=O)c1ccc(OC)c(OC)c1OC)[O][Sn]([CH2]CCC)([CH2]CCC)[O]C(=O)c1ccc(OC)c(OC)c1OC	0.284 µM	1.25 µM

What follows are compounds tested on UACC-62 melanoma (assay: inhibition of tumour cell growth, NCI panel, 48 h).

Compound	GI50	TGI
CNCCOC(=O)/C=C1\CC[C@H]2[C@@H]([C@@H](O)C(=O)[C@@H]3[C@]2(C)CC[C@H](O)[C@]3(C)C(=O)OC)[C@H]1C	1.41 µM	2.93 µM
Cc1nnc(Nc2ccc(NC(=O)Nc3ccc(Cl)cc3)cc2)c2ccccc12	1.75 µM	3.59 µM
CC(=O)ON1CCCC(P(=O)(OCCSC(=O)C(C)(C)C)OCCSC(=O)C(C)(C)C)C1=O (stereo not given)	1.57 µM	8.58 µM
NS(=O)(=O)c1ccc(N=Nc2c(O)c(C(=O)O)cc3ccccc23)cc1	–	> 100 µM
Cc1c(N(C)C)ccc2c(=O)c3cccc(CC(=O)O)c3oc12	–	> 100 µM
CC(NCCC(c1ccccc1)c1ccccc1)c1ccccc1 (stereo not given)	1.62 µM	3.57 µM
O=C(Nc1ccc(Br)cc1F)c1cc(Cl)ccc1O	0.292 µM	1.16 µM
NC(N)=N/N=C/c1c(Cl)cccc1Cl	18 µM	37.3 µM
S=c1[nH]c(=S)c2cc3ccccc3nc2[nH]1	69.5 µM	> 100 µM
CCC[CH2][Sn]([CH2]CCC)([O]C(=O)c1ccc(OC)c(OC)c1OC)[O][Sn]([CH2]CCC)([CH2]CCC)[O]C(=O)c1ccc(OC)c(OC)c1OC	0.164 µM	0.504 µM

The compounds below were run on HOP-92 NSCLC (assay: inhibition of tumour cell growth, NCI panel, 48 h).

Compound	GI50	TGI
CNCCOC(=O)/C=C1\CC[C@H]2[C@@H]([C@@H](O)C(=O)[C@@H]3[C@]2(C)CC[C@H](O)[C@]3(C)C(=O)OC)[C@H]1C	0.527 µM	3.52 µM
Cc1nnc(Nc2ccc(NC(=O)Nc3ccc(Cl)cc3)cc2)c2ccccc12	2.56 µM	6.06 µM
CC(=O)ON1CCCC(P(=O)(OCCSC(=O)C(C)(C)C)OCCSC(=O)C(C)(C)C)C1=O (stereo not given)	0.87 µM	31.2 µM
NS(=O)(=O)c1ccc(N=Nc2c(O)c(C(=O)O)cc3ccccc23)cc1	–	> 100 µM
Cc1c(N(C)C)ccc2c(=O)c3cccc(CC(=O)O)c3oc12	–	> 100 µM
CC(NCCC(c1ccccc1)c1ccccc1)c1ccccc1 (stereo not given)	1.05 µM	3.56 µM
O=C(Nc1ccc(Br)cc1F)c1cc(Cl)ccc1O	0.174 µM	0.557 µM
NC(N)=N/N=C/c1c(Cl)cccc1Cl	6.66 µM	32.7 µM
S=c1[nH]c(=S)c2cc3ccccc3nc2[nH]1	15.4 µM	> 100 µM
CCC[CH2][Sn]([CH2]CCC)([O]C(=O)c1ccc(OC)c(OC)c1OC)[O][Sn]([CH2]CCC)([CH2]CCC)[O]C(=O)c1ccc(OC)c(OC)c1OC	0.159 µM	0.554 µM
